Results reported in US20240390301A1, “COMBINATIONS OF PERIPHERAL 5-HT2A RECEPTOR ANTAGONISTS AND CENTRAL 5-HT2A RECEPTOR AGONISTS” (priority 2021, published 2024).
Read-outs that look alike come from different tables or passages of the source.

Columns and labels:
[1] = Metabolic stability in rat liver microsomes; assay type: in vitro ADME; conditions: for half-life at 1 μM / microsomal CLint at 1 μM: both sexes, rat, microsomes, pH 7.4
Method: RLM Stability. Pooled RLM from adult male and female donors (Xenotech R1000) were used. Microsomal incubations were carried out in multi-well plates. Liver microsomal incubation medium consisted of PBS (100 mM, pH 7.4), MgCl2 (1 mM), and NADPH (1 mM), with 0.50 mg of liver microsomal protein per mL. Control incubations were performed by replacing the NADPH-cofactor system with PBS. Test compounds (1 μM, final solvent concentration 1.0%) were incubated with microsomes at 37° C. with constant shaking. Six time points over 60 minutes were analyzed, with 60 μL aliquots of the reaction mixture being drawn at each time point. The reaction aliquots were stopped by adding 180 μL of cold (4° C.) acetonitrile containing 200 ng/mL tolbutamide and 200 ng/ml labetalol as internal standards (IS), followed by shaking for 10 minutes, and then protein sedimentation by centrifugation at 4,000 rpm for 20 minutes at 4° C. Supernatant samples (80 μL) were diluted with water (240 μL) and analyzed for parent compound remaining using a fit-for-purpose liquid chromatography-tandem mass spectrometry (LC-MS/MS) method.
Data Analysis. The elimination constant (kel), half-life (t1/2), and intrinsic clearance (CLint) were determined in a plot of […] versus time, using linear regression analysis.

in vitro = conditions: for fraction unbound at 4 h, 5 μM: pH 7.4
Method: Method 1. Aliquots of 50 μL loading matrix containing test compound (2 μM final incubation concentration) or control compound in triplicate were transferred to a Sample Collection Plate. The samples were matched with opposite blank buffer to obtain a final volume of 100 μL, with a volume ratio of matrix: Dialysis Buffer of 1:1 (v:v) in each well. Stop solution (200 ng/ml tolbutamide and 200 ng/mL labetalol in ACN) was added to these TO samples of test compound and control compound. The plate was sealed and shaken at 800 rpm for 10 min. An aliquot of 100 μL of the loading matrix containing test compound or control compound was transferred to the donor side of each dialysis well in triplicate and 100 μL of the Dialysis Buffer was loaded to the receiver side of the well. Then the plate was rotated at approximately 100 rpm in a humidified incubator with 5% CO2 at 37±1° C. for 4 hours. At the end of the dialysis, aliquots of 50 μL samples from the buffer side and matrix side of the dialysis device were taken into new 96-well plates (Sample Collection Plates). An equal volume of opposite blank matrix (buffer or matrix) in each sample was added to reach a final volume of 100 μL, with volume ratio of matrix: Dialysis Buffer of 1:1 (v:v) in each well. All samples were further processed by protein precipitation before LC-MS/MS analysis.
Method 2. Aliquots (200 μL) of positive controls and test compounds at 5 μM (triplicates) were separately added to the plasma chamber and […] of phosphate buffered saline (pH 7.4) was added to the buffer chamber of the inserts. After sealing the rapid equilibrium dialysis (RED) device with an adhesive film, dialysis was performed in an incubator at 37° C. with shaking at 100 RPM for 4 hours. Aliquots (50 μL) of warfarin and test compounds were added to four 0.5 mL micro fuse tubes. Two aliquots were frozen immediately (0-minute sample). The other two aliquots were incubated at 37° C. for 4 hours along with the RED device. Following dialysis, an aliquot of 50 μL was removed from each well (both plasma and buffer side) and diluted with an equal volume of opposite matrix (dialyzed with the other matrix) to nullify the matrix effect. Similarly, 50 μL of buffer was added to recovery and stability samples. An aliquot of 100 μL was used for LC-MS/MS analysis following protein precipitation with ACN containing internal standard.

Rat plasma stability = assay type: in vitro ADME; conditions: 37° C.
Method: The results were used to confirm that the plasma protein binding results were not confounded by poor plasma stability.
Method 1. […] Plasma was centrifuged at 4,000 rpm for 5 min and any clots were remove.
Method 2. […]

[2] = 37° C.
Method: Method 1. Pooled frozen rat brain homogenate was thawed in a water bath at 37° C. prior to the experiment. Using an Apricot automation workstation, 98 μL/well of blank brain homogenate or 100 mM PBS were added to all 96-well reaction plates (Blank, T0, T10, T30, T60, and T120). […] All reaction plates containing mixtures of compound and brain homogenate were incubated at 37° C. in a water bath for up to 120 minutes. At the end of incubation, 500 uL of stop solution (200 ng/mL tolbutamide and 200 ng/mL labetalol in ACN) was added to precipitate protein and mixed thoroughly for 20 minutes at 4° C. After centrifugation at 4,000 rpm and 4° C. for 20 minutes, an Apricot automation workstation was used to transfer 150 μL of supernatant from each reaction plate to its corresponding bioanaylsis plate, which was shaken for 10 minutes prior to LC-MS/MS analysis.
Method 2. Rat brain tissue homogenate samples were prepared by diluting one volume of whole rat brain tissue with two volumes of dialysis buffer (phosphate buffered saline pH 7.4-0.1 M sodium phosphate and 0.15 M sodium chloride) to yield 3 times diluted homogenate. Test compounds were spiked into 400 μL aliquots (n=3) of rat brain homogenate and the resulting mixtures were incubated at 37° C. […] An aliquot (100 μL) of each sample was transferred to a 96-well deep plate and analyzed by LC-MS/MS.

[3] = RLM, 1 μM, 0.50 mg protein per mL, NADPH
[4] = Method 2: 3 times diluted homogenate

Row | SMILES | Metabolic stability in RLM [1] | half-life at 1 μM [1, 3] | microsomal CLint at 1 μM [1, 3] | fraction unbound at 4 h, 2 μM (in vitro; rat, plasma) | % Remaining (120 minutes), rat plasma (Rat plasma stability; Method 1: 2 μM) | % Remaining (120 minutes), rat brain homogenate ([2]; Method 1: 1 μM) | fraction unbound at 4 h, 5 μM (in vitro; rat, plasma) | % Remaining (120 minutes), rat plasma (Rat plasma stability; Method 2: 5 μM) | % Remaining (120 minutes), rat brain homogenate [2, 4] | Clint [1, 3] | t1/2 [1, 3] | Mean % bound (rat plasma protein binding) (in vitro; Method 2: RED, 5 μM, 4 hours, 37° C.)
1 | CC(CNC(=N)CNc1ccccc1)Oc1cccc(Cl)c1.O=CO (stereo not shown) [BW501C67, N-(2-(3-chlorophenoxy)propyl)-2-(phenylamino)acetimidamide formate] | poor metabolic stability | 2.1 min | 658 µL/min/mg | 0.107 | 100.7% | 110.8% | – | – | – | – | – | –
2 | CC(C)COc1ccc(CNC(=O)N(Cc2ccc(F)cc2)C2CCN(C(=O)CC[C@H](N)C(=O)O)CC2)cc1 [Compound 14a, (S)-2-amino-5-(4-(1-(4-fluorobenzyl)-3-(4-isobutoxybenzyl)ureido)piperidin-1-yl)-5-oxopentanoic acid] | highly stable | > 145 min | < 9.6 µL/min/mg | – | – | – | 0.06 | 97% | – | – | – | –
3 | COc1cccc(CCc2ccccc2OCC(CN(C)C)OC(=O)CCC(=O)O)c1 (stereo not shown) [sarpogrelate] | – | – | – | – | – | – | 0.002 | 67% | – | – | – | –
4 | COc1cccc(C(=O)Nc2ccc(OCCN3CCOCC3)c(-c3ccnn3C)c2)c1 [temanogrel] | – | – | – | – | – | – | 0.091 | 95% | 101% | – | – | –
5 | COc1cccc(OC(C)CNC(=N)Cc2cccc(C)c2)c1.O=C(O)C(F)(F)F (stereo not shown) [xylamidine, N-(2-(3-methoxyphenoxy)propyl)-2-(m-tolyl) acetimidamide trifluoroacetate] | poor metabolic stability | – | – | – | – | – | – | 94% | 100% | 709.1 µL/min/mg | 2.0 min | 65.6%
